Test results taken from patent publication US7074801B1, “Nitrogen-containing condensed cyclic compound having a pyrazolyl group as a substituent group and pharmaceutical composition thereof” (Eisai Co., Ltd., priority 2001, dated 2006).
pIC50: −log10 of the molar value. Where a name gives a salt, the structure may show the parent alone. Read-outs that look alike come from different tables or passages of the source.

Tested on: STAT6
Test: Inhibitory test on STAT6 activation: IL-4-induced alkali phosphatase STAT6 reporter in 293 cells stably expressing the STAT6 gene and STAT6 reporter gene
Format: cell-based
Details: HEK293, 1 ng/ml human recombinant IL-4, 16 hours, 293 cells with STAT6 reporter, read-out: Inhibitory activity IC50 (concentration at which the alkali phosphatase activity induced by IL-4 was inhibited by 50%)
Protocol: The inhibitory action of the present compound on activation of STAT6 was evaluated according to the following experiments.
1) Construction of a STAT6 Reporter Gene
An oligonucleotide of SEQ ID NO:1 in which three STAT6-binding regions on a human immunoglobulin germline E gene promoter had been linked was mixed with its complementary chain, thermally denatured and annealed, and 5′- and 3′-ends thereof were cleaved with restriction enzymes Kpn I (Code No. 1068A, Takara Shuzo) and Xba I (Code No. 1093A, Takara Shuzo) respectively, and the resulting fragment was cloned into a Kpn I/Xba I site of pUG-BGH-PLAP vector (described in Molecular Pharmacology, 49:860–873, 1996). To induce a basic transcriptional factor, a TK promoter region of herpes virus was cloned into an Xba I/Hind III (Code No. 1060A, Takara Shuzo) site of the pUG-BGH-PLAP vector. To obtain a stably expressing cell strain, a neomycin resistance gene (PGK-neo expression cassette) was integrated with an Sal I (Code No. 1080A, Takara Shuzo) of this vector. Cloning of the TK promoter and PGK-neo expression cassette was carried out according to Molecular Pharmacology, 49:860–873, 1996.
The underlined sites are a Kpn I recognition site and Xba I recognition site respectively. 2) Construction of an STAT6 Expression Vector
An oligonucleotide of SEQ ID NO:2 containing an initiation codon of STAT6 gene and an oligonucleotide of SEQ ID NO:3 containing a stop codon were used, and total RNA was prepared from human peripheral blood cells by using RNeasy Mini kit (Code No. 74104, OIAGEN). Then, cDNA was prepared by reverse transcription reaction using Takara RNA LA PCR kit (Code No. RR012A, Takara Shuzo) and then subjected to PCR reaction with primers of SEQ ID NOS:2 and 3, to amplify the STAT6 gene. • (SEQ ID NO:2) 5′-[…]-3′ The underlined site is an EcoR I recognition site. • (SEQ ID NO:3) 5′-[…]-3′ The underlined site is an Xho I recognition site.
The PCR product was digested with EcoR I (Code No. 1040A, Takara Shuzo) and Xho I (1094A, Takara Shuzo), and the digested fragment was isolated on an agarose gel. The isolated fragment was integrated into a vector fragment obtained by digesting pcDNA3.1 (+) (Code No. U790-20, Invitrogen) vector with EcoRI/Xho I.
3) Introduction of the Gene and Preparation of a Stably Expressing Cell Strain
Human fetal kidney-derived 293 cells (American Type Culture Collection), 3.0×10^5 cells, were spread on a Falcon tissue culture 6-well plate (Code No. 35-3046, Becton Dickinson) and cultured overnight. 1.5 μg of the prepared STAT6 reporter gene, 1.5 μg of the STAT6 gene and 20 μl of lipofectamine (Code No. 18324-012, GIBCO BRL) were mixed in 0.3 ml OPTI-MEM medium (Code No. 31985-070) and left at room temperature for 20 minutes. Thereafter, 1.2 ml OPTI-MEM medium was further added to the cells washed with OPTI-MEM medium not containing fetal bovine serum, and the cells were cultured for 2 hours. 1.5 ml medium containing fetal bovine serum was added thereto, and the cells were cultured for additional 19 hours. The medium was exchanged with a fresh one, and Geneticin (Code No. G-5013, SIGMA) was added at a concentration of 1 mg/ml, and the cells were cultured, and chemical-resistant cells were selected. The resulting chemical-resistant cells were floated in a medium containing 1 mg/ml Geneticin, then spread at a density of 0.5 cell/well on a 96-well microplate (Code No. 35-3072, Becton Dickinson) and cloned to give a clone expressing alkali phosphatase in response to IL-4.
4) Inhibitory Test on STAT6 Activation
The cells stably expressing the STAT6 gene and STAT6 reporter gene and expressing alkali phosphatase in response to IL-4 were spread at a density of 5000 cells/180 μl/well on a 96-well microplate (Code No. 35-3072, Becton Dickinson) and cultured overnight. […]

Row | SMILES | pIC50 (Table 2) | pIC50 (Table 1)
1 | COc1ccc(-c2ccc(-c3n[nH]cc3-c3ccc4ncnc(-c5ccc(S(C)(=O)=O)s5)c4c3)cc2)cn1 [Example 889, 6-{3-[4-(6-Methoxypyridin-3-yl)phenyl]-1H-pyrazol-4-yl}-4-(5-methylsulfonylthiophen-2-yl) quinazoline] | 7.00 to 8.00 | –
2 | Cc1n[nH]cc1-c1ccc2nccc(N3CCC(Oc4ccc(S(C)(=O)=O)cc4)CC3)c2c1 [Example 239, 6-(3-Methyl-1H-4-pyrazolyl)-4-{4-[4-(methylsulfonyl)-phenoxy]piperidino}quinoline dihydrochloride] | – | > 8.00
3 | Cc1n[nH]cc1-c1ccc2ncnc(N3CCC(Oc4cccc(C#N)c4)CC3)c2c1 [Example 876, 3-{1-[6-(3-Methyl-1H-pyrazol-4-yl)quinazolin-4-yl]piperidin-4-yloxy} benzonitrile trihydrochloride] | 7.00 to 8.00 | –
4 | Fc1cccc(F)c1-c1n[nH]cc1-c1ccc2ncc(-c3noc(CCC(F)(F)F)n3)n2c1 [Example 601, 3-[5-(3,3,3-Trifluoropropyl)-[1,2,4]oxadiazol-3-yl]-6-[3-(2,6-difluorophenyl)-1H-4-pyrazolyl]-imidazo[1,2-a]pyridine] | – | > 8.00
5 | CS(=O)(=O)c1cnc(-c2ncnc3ccc(-c4c[nH]nc4-c4c(F)cccc4F)cc23)s1 [Example 899, 6-[3-(2,6-Difluorophenyl)-1H-pyrazol-4-yl]-4-(5-methylsulfonylthiazol-2-yl) quinazoline] | > 8.00 | –
6 | CN(C)S(=O)(=O)c1ccc(N2CCN(c3ncnc4ccc(-c5cn[nH]c5)cc34)CC2)cc1 [Example 921, N,N-Dimethyl-4-{4-[6-(1H-pyrazol-4-yl)quinazolin-4-yl]piperazin-1-yl} benzene sulfonamide] | > 8.00 | –
7 | CS(=O)(=O)c1ccc(-c2ncnc3ccc(-c4c[nH]nc4[N+](=O)[O-])cc23)s1 [Example 901, 4-(5-Methylsulfonylthiophen-2-yl)-6-(3-nitro-1H-pyrazol-4-yl) quinazoline] | 6.00 to 7.00 | –

Further lines, results first:

Row | pIC50 (Table 2) | pIC50 (Table 1) | SMILES
8 | – | 7.00 to 8.00 | Fc1cc(Cl)ccc1-c1nc(-c2ccc(-c3cnc4ccc(-c5cn[nH]c5)cn34)cc2)no1 [Example 697, 5-(4-Chloro-2-fluorophenyl)-3-{4-[6-(1H-4-pyrazolyl)-imidazo[1,2-a]pyridin-3-yl]-1,2,4-oxadiazole hydrochloride]
9 | – | > 8.00 | Cc1ccnc(NC(=O)c2ccc(-c3cnc4ccc(-c5cn[nH]c5)cn34)cc2F)c1 [Example 681, N1-(4-Methyl-2-pyridyl)-2-fluoro-4-[6-(1H-4-pyrazolyl)-imidazo[1,2-a]pyridin-3-yl]benzamide dihydrochloride]
10 | – | > 8.00 | CN(C)Cc1nc(-c2cnc3ccc(-c4c[nH]nc4-c4ccccc4F)cn23)no1 [Example 598, (3-{6-[3-(2-Fluorophenyl)-1H-4-pyrazolyl]-imidazo[1,2-a]-pyridin-3-yl}-[1,2,4]oxadiazol-5-ylmethyl)dimethylamine tri-trifluoroacetate]
11 | – | > 8.00 | C=Cc1ccc(NC(=O)c2ccc(-c3cnc4ccc(-c5cn[nH]c5)cn34)cc2F)nc1 [Example 689, N1-(5-Vinyl-2-pyridyl)-2-fluoro-4-[6-(1H-4-pyrazolyl)-imidazo[1,2-a]pyridin-3-yl]benzamide dihydrochloride]
12 | > 8.00 | – | O=C(NCc1cccc(OC(F)F)c1)c1ccc(-c2cnc3ccc(-c4cn[nH]c4)cn23)cc1F [Example 706, N1-[3-(Difluoromethoxy)benzyl]-2-fluoro-4-[6-(1H-4-pyrazolyl)imidazo[1,2-a]pyridin-3-yl]benzamide hydrochloride]
13 | – | > 8.00 | Cc1n[nH]cc1-c1ccc2ncc(-c3ccc(C(=O)NN4CCCCC4)c(F)c3)n2c1 [Example 644, N1-Piperidino-2-fluoro-4-[6-(3-methyl-1H-4-pyrazolyl)-imidazo[1,2-a]pyridin-3-yl] benzamide dihydrochloride]
14 | – | > 8.00 | NC(=O)c1ccc(-c2cnc3ccc(-c4c[nH]nc4-c4ccc(F)cc4)cn23)cc1 [Example 78, 4-{6-[3-(4-Fluorophenyl)-1H-4-pyrazolyl]imidazo[1,2-a]-pyridin-3-yl}benzamide dihydrochloride]
